Measured values: patent publication US8680058B2, “Selectively targeted antimicrobial peptides and the use thereof” (priority 2006, dated 2014)
Where two headings read alike, the source gives them in different places. No end group written: not given here.

Legend:
other oral streptococci = assay: Binding of fluorescently labeled peptides to other oral streptococci; conditions: fluorescently labeled peptide
Source text: 1.2 Fluorescent labeling of peptides and fluorescence microscopy. Aliquots of CSPC16 (SEQ ID NO 2), CSP-fragment peptides (Table 2), and C16G2 (SEQ ID NO 4) were labeled with carboxyfluorescein (Sigma) as described previously (Eckert et al., 2006). After peptide cleavage but prior to the bacterial labeling assay, fluorescence intensity per μM peptide was checked fluorimetrically (λex=488 nm, λem=520 nm VersaFluor, BioRad) and found to be relatively similar (data not shown). To evaluate the level of peptide binding to bacteria, streptococci from an overnight culture (OD600 of 0.7-1.0) were washed with phosphate buffered saline (1×PBS), diluted 1:2 into 1×PBS, and exposed to peptide (16 μM) for 5 min at 25° C. After incubation with peptide, unbound agent was removed from the bacteria by three cycles of centrifugation (5 min, 16,000×g) and resuspension in 1×PBS. Labeling of oral streptococci was evaluated using brightfield and fluorescence microscopy (Nikon E400) at a 40× magnification. The digital images utilized for the semi-quantitative binding assessment were acquired with the factory-supplied software (SPOT, Diagnostics).

S. mutans = assay type: cell-based, Streptococcus mutans
Procedure: 1.3 Determination of antimicrobial activity. The general antimicrobial activity of peptides against planktonic bacteria was determined by a MIC assay in TH broth (all oral streptococci) (Qi et al., 2005).
S. mutans, S. gordonii Challis (DL1), and S. sanguinis NY101 strains were grown in Todd Hewitt (TH, Fisher) broth medium at 37° C. under anaerobic conditions (80% N2, 10% CO2, and 10% H2). S. mutans strains UA159 (Ajdic et al., 2002), ATCC 25175, and T8 (Rogers, 1975), are wild-type clinical isolates, while comD is a knockout mutant that was constructed previously from the wild-type UA140 background (Qi et al., 2005). Luciferase expressing S. mutans strain JM11 was constructed from UA140 as described (Merritt et al., 2005). Exponentially growing bacterial cells were diluted to ˜1×10^5 cfu/mL in TH and placed into 96-well plates (Fisher). Peptides were then serially diluted and added to the bacteria.

S. mutans UA159 = assay: Time-kill (bactericidal kinetics), planktonic S. mutans; assay type: cell-based, Streptococcus mutans; conditions: 25 μM, 1 min exposure
Procedure: 1.4 Determination of bactericidal kinetics. To determine the short term killing rate and selectivity of C16G2 and G2 we performed time-kill experiments, essentially as described previously (Eckert et al., 2006). S. mutans UA159, S. gordonii, or S. sanguinis were grown to log phase and diluted to ˜1×10^5 cfu/mL in growth medium. Under aerobic conditions, 25 μM G2 or C16G2 was added to the cell suspension and incubated at 25° C. At 1 min, 10 μL of cell suspension was removed, rescued by dilution into growth medium (1:50) and kept on ice. For plating, 20-500 μL of rescued cells were spread on growth medium agar plates and colonies were counted after overnight incubation at 37° C. under anaerobic conditions. We considered 60 cfu/mL as the detection limit for this assay. Values of surviving cfu/mL were expressed as the ratio of survivors from C16G2-treated cultures to cfu/mL from samples exposed to G2.

[1] = system: S. mutans JM11 within a multi-species biofilm; assay: Multi-species biofilm in saliva, luciferase readout of S. mutans JM11; assay type: cell-based, Streptococcus mutans; conditions: 25 μM in saliva, 5 min exposure
Procedure: 1.6 Evaluation of antimicrobial activity against bacterial biofilm in saliva. For these experiments, we employed methods similar to those previously described (Bleher et al., 2003). A day prior to the assay, saliva was collected and pooled from 5 adult volunteers in the laboratory, diluted 1:4 in TH broth and centrifuged 2,000×g for 10 min. The supernatant was then filter sterilized (0.2 μm filter, Nunc) and stored at 4° C. A portion of pooled saliva was also diluted 1:2 in 1×PBS and processed as before. On the day of the assay, overnight cultures of JM11 and other oral streptococci were normalized to OD600 1.0 and ˜3×10^6 cfu/mL of each species was added to 10 mL of the TH-diluted saliva. […] At each time point, total biofilm growth was measured by reading absorbance at OD600, and the health of S. mutans within the population examined by relative luciferase expression (relative light unit, (RLU) production), as described previously (Merritt et al., 2005). […] RLU production was measured using a TD 20/20 luminometer (Turner Biosystems) and reported values were obtained from the average of 3 independent samples. […]
1.9 C16G2 can selectively eliminate S. mutans from a mixed species biofilm. […] The mixed-species biofilms were formed with saliva, and then peptides (25 μM) suspended in saliva were added for 5 min and removed, and the post-treatment growth of the biofilm was further monitored. […]

TFFRLFNRSFTQALGKGGGKNLRIIRKGIHIIKKY-NH2 [Peptide C16G2]
binding to other oral streptococci (other oral streptococci): not to other oral streptococci | increase in antimicrobial activity over the parental antimicrobial peptide G2 (S. mutans; MIC, S. mutans strains): 4-5 fold | MIC (S. mutans; S. mutans 25175): 3.8 ± 0.3 µM | MIC (S. mutans; S. mutans T8): 3.7 ± 0.2 µM | MIC (S. mutans; S. mutans UA159): 3.0 ± 1.6 µM | MIC (S. mutans; S. mutans comD): 5.1 ± 2.4 µM | activity in comparison to G2 (surviving cfu/mL) (S. mutans UA159): over 20 fold | S. mutans population within mixed-species biofilm (luciferase activity, RLU/OD600) [1]: dramatically reduce the S. mutans population | duration of selective inhibition of S. mutans growth within multi-species biofilm [1]: ≥ 2 h
